Publication PMC4071299 (Toxicology Reports, 2014)
Where two headings read alike, the source gives them in different places.

Key:
MCF-7 cells = conditions: cited from earlier work
[1] = system: rat thyroid hormone receptor; conditions: cited from earlier work
[2] = male SD rats, cited from earlier work; for Cmax: read-out: plasma Cmax
rats [3] = conditions: cited from earlier work
[4] = Disposition and elimination of [14C]-radioactivity after single oral; format: in vivo, female Crl:WI(Han) rats
[5] = 20 mg/kg, male F-344 rats; cited from earlier work
[6] = Elimination and distribution after repeated oral administration; format: in vivo, female Crl:WI(Han) rats; conditions: […] mg/kg for 5 days
MtT/E-2 cells = conditions: lower extent than bisphenol A; cited from earlier work
rats [7] = conditions: single dose by gavage to rats; cited from earlier work
[8] = Biliary elimination in bile-duct cannulated rats after oral dose; format: in vivo, female Crl:WI(Han) rats; conditions: oral […] mg/kg, 6 h
[9] = system: estrogen sulfotransferase SULT1E1; conditions: crystallographic studies; cited from earlier work
human transthyretin = conditions: cited from earlier work
TTR = conditions: cited from earlier work
[10] = system: progesterone receptor (PR); conditions: transfected yeast; cited from earlier work
[11] = Plasma toxicokinetics of free TBBPA after oral or IV administration; format: in vivo, female Crl:WI(Han) rats; conditions: for AUC: free TBBPA in plasma; for half-life: iv, 25 mg/kg
[12] = Disposition of [14C]-radioactivity after IV administration of TBBPA; format: in vivo, female Crl:WI(Han) rats; conditions: IV 25 mg/kg
estradiol sulfation = conditions: in vitro; cited from earlier work

Structure (SMILES): CC(C)(O)c1cc(Br)c(O)c(Br)c1 [2,6-dibromo-4-[2-hydroxypropane-2-yl]-phenol]
- estrogenic activity (MCF-7 cells): estrogenic activity

Structure (SMILES): COC(C)(C)c1cc(Br)c(O)c(Br)c1 [2,6-dibromo-4-[2-methoxypropane-2-yl]-phenol]
- estrogenic activity (MCF-7 cells): estrogenic activity

Structure (SMILES): CC(C)(c1cc(Br)c(O)c(Br)c1)c1cc(Br)c(O)c(Br)c1 [TBBPA, 2,2′,6,6′-Tetrabromo-4,4′-isopropylidene diphenol]
- binding to thyroid hormone receptor [1]: high affinity
- Tmax ([2]; oral 200, 500 and 1000 mg/kg): 252 to 300 min
- Cmax ([2]; 300 mg/kg): 103 µM
- Cmax ([2]; oral 200 mg/kg): 23 µM
- Cmax ([2]; oral 500 mg/kg): 34 µM
- Cmax ([2]; oral 1000 mg/kg): 57 µM
- toxicity after intraperitoneal administration (rats [3]): hepatotoxicity and heme metabolism disturbances
- dose recovery in feces in 72 h ([4]; oral 25 mg/kg): 95.7 ± 3.5%
- dose recovery in feces in 72 h ([4]; oral 1000 mg/kg): 98.8 ± 2.2%
- dose recovered in urine ([4]; oral 25, 250 or 1000 mg/kg, 72 h): 0.2–2 % of dose
- dose recovery in feces in 72 h ([4]; oral […] mg/kg): 94.3 ± 3.6%
- radioactivity in tissues at 24 h ([4]; oral […] mg/kg): < 2%
- [14C]-radioactivity, blood ([4]; oral […] mg/kg, 1 h): 0.6 ± 0.2 % dose
- [14C]-radioactivity, blood ([4]; oral […] mg/kg, 3 h): 0.4 ± 0.2 % dose
- [14C]-radioactivity, feces ([4]; oral […] mg/kg, 6 h): 0.1 ± 0.1 % dose
- [14C]-radioactivity, urine ([4]; oral […] mg/kg, 6 h): 1.2 ± 0.7 % dose
- [14C]-radioactivity, blood ([4]; oral […] mg/kg, 24 h): 0.06 ± 0.05 % dose
- [14C]-radioactivity, feces ([4]; oral […] mg/kg, 24 h): 82 ± 18 % dose
- [14C]-radioactivity, large intestine ([4]; oral […] mg/kg, 24 h): 0.3 ± 0.1 % dose
- [14C]-radioactivity, urine ([4]; oral […] mg/kg, 24 h): 0.3 ± 0.1 % dose
- administered [14C]-radioactivity detected in tissues ([4]; tissues collected at 72 h following oral doses): < 0.1%
- systemic bioavailability [5]: 1.6%
- terminal dose recovered from feces ([6]; 24 h after final ([14C]) dose): 84 ± 8%
- dose recovered in urine ([6]; 24 h after final dose): Less than 1%
- tissue retention ([6]; 24 h after final dose): minimal
- cell proliferation (MtT/E-2 cells): enhanced proliferation
- LD50 (rats [7]): greater than 5 g/kg
- [14C]-radioactivity, bile [8]: 6 ± 7 % dose
- estrogenic activity (MCF-7 cells): estrogenic activity
- binding to SULT1E1 [9]: high affinity
- binding to transthyretin (human transthyretin): bind
- TTR binding (TTR): T4 competitor
- PR activity [10]: antagonist
- administered radioactivity remaining in plasma ([11]; IV 25 mg/kg, 6 h post dose): ~2%
- AUC ([11]; IV (25 mg/kg)): 4286 nmol·min/mL
- AUC ([11]; Oral ([…] mg/kg)): 1729 nmol·min/mL
- half-life ([11]; female, Crl:WI(Han), rat, plasma, distribution half-life, IV 25 mg/kg, two-compartment model): 2 min
- half-life ([11]; female, Crl:WI(Han), rat, plasma, terminal half-life, IV 25 mg/kg, non-compartmental analyses): 133 min
- half-life ([11]; female, Crl:WI(Han), rat, plasma, terminal half-life, IV 25 mg/kg, two-compartment model): 22 min
- Cmax ([11]; female, Crl:WI(Han), rat, plasma, po, 250 mg/kg): 5.4 µM
- administered radioactivity eliminated in feces within 6 h [12]: Approx. 10%
- administered radioactivity eliminated in urine within 6 h [12]: ~1%
- dose recovered in contents of large intestine ([12]; 6 h post dose): ~61%
- dose recovered in contents of small intestine ([12]; 6 h post dose): approx. 15%
- [14C]-radioactivity, all other tissues ([12]; 6 h post-dose): less than 1 % of the administered dose
- [14C]-radioactivity, adipose ([12]; 6 h post-dosing): 1 ± 0.8%
- [14C]-radioactivity, large intestine ([12]; 6 h post-dosing): 3.2 ± 3%
- [14C]-radioactivity, liver ([12]; 6 h post-dosing): 1.8 ± 0.6%
- [14C]-radioactivity, small intestine ([12]; 6 h post-dosing): 3.2 ± 3.1%
- effect on estradiol sulfation (estradiol sulfation): inhibitor
